pEC50: −log10 of the molar value. *1 amine or outer side, *2 acyl side, *3 side chain or, on linkers, in order; H or OH if unused. Where a SMILES comes first, the peptide text is derived from it. Bridges are numbered along the chain shown (N, C = ends). [ ]: non-standard residue; d: D form. Hcy(O2-CH2CH2CO) = O=C([C@H](CCS(=O)(=O)CCC(=O)[*:3])N[*:1])[*:2]; αMeL = CC(C)C[C@](C)(N)C(=O)O; Chg = N[C@H](C(=O)O)C1CCCCC1; NcPrGly = O=C(O)CNC1CC1
Tests used:
Format in all cases: cell-based
[1] = target: T1, human Oxytocin (OTR) receptor (Homo sapiens, UniProt P30559); experiment: Calcium flux assay (FLIPR) in CHO cells expressing human OTR; details: for Emax: CHO, maximum response normalized to endogenous full agonist = 100%, read-out: hOT efficacy; for pEC50: agonist mode, CHO cells, calcium flux FLIPR, read-out: hOT EC50
T1 construct: expressed in transfected cells
T1 sequence (P30559 1-389): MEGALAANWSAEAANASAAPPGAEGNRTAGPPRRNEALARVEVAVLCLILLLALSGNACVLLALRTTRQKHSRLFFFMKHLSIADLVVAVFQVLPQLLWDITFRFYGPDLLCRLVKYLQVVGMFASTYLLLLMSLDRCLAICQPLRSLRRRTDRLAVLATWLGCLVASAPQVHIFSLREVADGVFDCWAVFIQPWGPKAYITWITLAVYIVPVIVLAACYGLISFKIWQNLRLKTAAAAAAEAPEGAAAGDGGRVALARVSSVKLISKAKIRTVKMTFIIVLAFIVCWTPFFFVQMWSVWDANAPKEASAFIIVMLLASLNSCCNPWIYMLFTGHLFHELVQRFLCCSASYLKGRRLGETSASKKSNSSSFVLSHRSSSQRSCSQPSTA
Excerpt: (§1) Chines Hamster Ovary (CHO) cells were transfected with expression plasmids encoding either the human Vla, the human Oxytocin (OTR) or the humanV2 receptor, the later in combination with the chimeric Gqs5 G protein to redirect the signal to Calcium flux. Stable cells were cloned by limiting dilution to yield monoclonal cell lines expressing either human Vla, human V2+Gqs5 or human OTR receptors and selected based on functional responses detected on a fluorometric imaging plate reader (FLIPR) detecting Calcium flux in the cell after receptor activation. The stable cell lines were grown in F-12 K Nutrient Mixture (Kaighns Modification), containing 10% foetal bovine serum (FBS), 1% penicillin-streptomycin, 1% L-glutamate, 200 ug/ml Geneticin at 37° C. in a 10% CO2 incubator at 95% humidity.
(§2) Calcium Flux Assays Using Fluorescent Imaging (Fluorometric Imaging Plate Reader, FLIPR)
(§3) On the afternoon before the assay, cells were plated at a density of 50,000 cells/well into black 96 well plates with clear bottoms to allow cell inspection and fluorescence measurements from the bottom of each well. The density of cells was sufficient to yield a confluent monolayer the next day. Hanks balanced salt solution, without phenol red, containing 20 mM HEPES (pH 7.3) and 2.5 mM probenecid (assay buffer) was prepared fresh for each experiment. Compound dilutions were made using a Beckman Biomek 2000 laboratory automation workstation, in assay buffer containing 1% DMSO. The dye-loading buffer consisted of a final concentration of 2 μM Fluo-4-AM (dissolved in DMSO and pluronic acid) in assay buffer. The existing culture media was removed from the wells and 100 μl of the dye-loading buffer was added to each well and incubated for approximately 60 min at 37° C. in a 5% CO2 incubator at 95% humidity. Once dye-loaded, the cells were washed thoroughly on an Embla cell washer with the assay buffer to remove any unincorporated dye. Exactly 100 μl assay buffer was left in each well.
(§4) Each 96 well plate containing dye-loaded cells was placed into the FLIPR machine and the laser intensity set to a suitable level to detect low basal fluorescence. To test compounds as agonists, 25 μl diluted compound was added to the plate 10 seconds into the fluorescent measurements and fluorescent response was recorded for 5 minutes. The fluorescence data was normalized to the endogenous full agonist dose-response set at 100% for the maximum response and 0% for the minimum. Each agonist concentration-response curve was constructed using a four parameter logistic equation with Microsoft Excel XLFit as follows: Y=Minimum+((Maximum−Minimum)/(1+10^(LogEC50−X)nH)), where y is the % normalized fluorescence, minimum is the minimum y, maximum is the maximum y, log EC50 is the log10 concentration which produces 50% of the maximum induced fluorescence, x is the log10 of the concentration of the agonist compound and H is the slope of the curve (the Hill Coefficient). The maximum value gives the efficacy of the agonist test compound in percentage. The concentration of agonist that produced a half-maximal response is represented by the EC50 value, the logarithm of which yielded the pEC50 value.

human V2 receptor = target: T2, human V2 receptor (Homo sapiens, UniProt P30518); experiment: Calcium flux assay (FLIPR) in CHO cells expressing human V2+Gqs5; details: for Emax: CHO, maximum response normalized to endogenous full agonist = 100%, read-out: hV2 efficacy; for pEC50: agonist mode, CHO cells with chimeric Gqs5, calcium flux FLIPR, read-out: hV2 EC50
T2 construct: expressed in transfected cells
T2 sequence (P30518 whole entry): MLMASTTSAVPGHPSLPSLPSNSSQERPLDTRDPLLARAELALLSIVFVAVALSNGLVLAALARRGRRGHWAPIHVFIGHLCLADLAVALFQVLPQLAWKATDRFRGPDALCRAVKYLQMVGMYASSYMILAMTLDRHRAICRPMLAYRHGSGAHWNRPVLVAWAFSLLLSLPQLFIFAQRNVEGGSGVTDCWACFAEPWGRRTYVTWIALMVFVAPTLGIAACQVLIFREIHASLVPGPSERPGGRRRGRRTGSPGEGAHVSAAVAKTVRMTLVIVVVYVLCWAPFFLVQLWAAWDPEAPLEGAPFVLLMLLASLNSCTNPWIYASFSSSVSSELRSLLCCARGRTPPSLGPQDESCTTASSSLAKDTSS
Excerpt: as §1, §2, §3, §4

human V1a receptor = target: T3, human V1a receptor (Homo sapiens, UniProt P37288); experiment: Calcium flux assay (FLIPR) in CHO cells expressing human V1a; details: for pEC50: agonist mode, CHO cells, calcium flux FLIPR, read-out: hV1a EC50
T3 construct: expressed in transfected cells
T3 sequence (P37288 whole entry): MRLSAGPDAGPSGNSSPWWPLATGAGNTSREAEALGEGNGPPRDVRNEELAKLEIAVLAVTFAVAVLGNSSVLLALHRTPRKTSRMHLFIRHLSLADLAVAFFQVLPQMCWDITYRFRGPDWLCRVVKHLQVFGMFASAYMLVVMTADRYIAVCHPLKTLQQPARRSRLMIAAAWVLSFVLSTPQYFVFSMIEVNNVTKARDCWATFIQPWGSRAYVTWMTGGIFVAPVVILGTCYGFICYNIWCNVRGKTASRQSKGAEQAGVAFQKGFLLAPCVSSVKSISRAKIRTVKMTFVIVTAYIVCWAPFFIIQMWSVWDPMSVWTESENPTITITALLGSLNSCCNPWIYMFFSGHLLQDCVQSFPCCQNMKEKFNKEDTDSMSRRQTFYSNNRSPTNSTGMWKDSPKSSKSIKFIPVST
Excerpt: as §1, §2, §3, §4

Emax [1]	pEC50 [1]	Emax (human V2 receptor)	pEC50 (human V2 receptor)	pEC50 (human V1a receptor)	hV1a efficacy (human V1a receptor; maximum response normalized to endogenous full agonist = 100%)	Structure (SMILES)
120%	9.10	101%	5.53	5.79	–	CC[C@H](C)[C@@H]1NC(=O)[C@H](Cc2ccc(O)cc2)NC(=O)CCS(=O)(=O)CC[C@@H](C(=O)N2CCC[C@H]2C(=O)N[C@@H](CC(C)C)C(=O)NCC(N)=O)NC(=O)[C@H](CC(N)=O)NC(=O)[C@H](CCC(N)=O)NC1=O [Example 1] (HELM PEPTIDE1{Y.I.Q.N.[O=C([C@H](CCS(=O)(=O)CCC(=O)[*:3])N[*:1])[*:2]].P.L.G.[am]}$PEPTIDE1,PEPTIDE1,1:R1-5:R3$$$V2.0)
107%	9.10	86%	5.40	< 4.57	–	CC[C@H](C)[C@@H]1NC(=O)[C@H](Cc2ccc(O)cc2)NC(=O)CCS(=O)(=O)CC[C@@H](C(=O)N(C)CC(=O)N[C@@H](CC(C)C)C(=O)NCC(N)=O)NC(=O)[C@H](CC(N)=O)NC(=O)[C@H](CCC(N)=O)NC1=O [Example 2] (HELM PEPTIDE1{Y.I.Q.N.[O=C([C@H](CCS(=O)(=O)CCC(=O)[*:3])N[*:1])[*:2]].[Sar].L.G.[am]}$PEPTIDE1,PEPTIDE1,1:R1-5:R3$$$V2.0)
125%	9.30	110%	5.43	< 4.57	–	CC[C@H](C)[C@@H]1NC(=O)[C@H](Cc2ccc(O)cc2)NC(=O)CCS(=O)(=O)CC[C@@H](C(=O)N(CC(=O)N[C@@H](CC(C)C)C(=O)NCC(N)=O)C2CC2)NC(=O)[C@H](CC(N)=O)NC(=O)[C@H](CCC(N)=O)NC1=O [Example 27] (HELM PEPTIDE1{Y.I.Q.N.[O=C([C@H](CCS(=O)(=O)CCC(=O)[*:3])N[*:1])[*:2]].[O=C(CN(C1CC1)[*:1])[*:2]].L.G.[am]}$PEPTIDE1,PEPTIDE1,1:R1-5:R3$$$V2.0)
105%	9.15	129%	5.03	< 4.57	–	CC[C@H](C)[C@@H]1NC(=O)[C@H](Cc2ccc(O)cc2)NC(=O)CCS(=O)(=O)CC[C@@H](C(=O)N(CC(=O)N[C@@](C)(CC(C)C)C(=O)NCC(N)=O)C2CC2)NC(=O)[C@H](CC(N)=O)NC(=O)[C@H](CCC(N)=O)NC1=O [Example 28] (YIQN[Hcy(O2-CH2CH2CO)][NcPrGly][αMeL]G-NH2; lactam N-5)
115%	9.40	150%	5.53	–	–	CC[C@H](C)[C@H](NC(=O)CN(C(=O)[C@@H]1CCS(=O)(=O)CCC(=O)N[C@@H](Cc2ccc(O)cc2)C(=O)N[C@@H]([C@@H](C)CC)C(=O)N[C@@H](CCC(N)=O)C(=O)N[C@@H](CC(N)=O)C(=O)N1)C1CC1)C(=O)NCC(N)=O [Example 31] (HELM PEPTIDE1{Y.I.Q.N.[O=C([C@H](CCS(=O)(=O)CCC(=O)[*:3])N[*:1])[*:2]].[O=C(CN(C1CC1)[*:1])[*:2]].I.G.[am]}$PEPTIDE1,PEPTIDE1,1:R1-5:R3$$$V2.0)
120%	9.59	155%	5.63	5.65	38%	CC[C@H](C)[C@@H]1NC(=O)[C@H](Cc2ccc(O)cc2)NC(=O)CCS(=O)(=O)CC[C@@H](C(=O)N(CC(=O)N[C@H](C(=O)NCC(N)=O)C2CCCCC2)C2CC2)NC(=O)[C@H](CC(N)=O)NC(=O)[C@H](CCC(N)=O)NC1=O [Example 32] (YIQN[Hcy(O2-CH2CH2CO)][NcPrGly][Chg]G-NH2; lactam N-5)

Reference: US20170081368A1, “PEPTIDES AS OXYTOCIN AGONISTS” (Hoffmann-La Roche Inc., priority 2014, published 2017)
